Source: EPA's ToxValDB 9.5 (doi:10.2903/j.efsa.2010.1389)
Values after ≈ are worked out from the molar mass of the structure shown.

Experiments:
[1] = tested on: Anas platyrhynchos
[2] = tested on: Apis mellifera; settings: acute; duration: 48 hours; dermal; mortality
[3] = tested on: Daphnia magna; settings: chronic/long-term; duration: 21 days; reproduction
[4] = tested on: Hypoaspis aculeifer; settings: chronic/long-term; duration: 14 days
[5] = tested on: Bibionidae; settings: chronic/long-term; duration: 28 days; development
[6] = tested on: Oncorhynchus mykiss
[7] = tested on: Lepomis macrochirus; settings: acute; duration: 96 hours; mortality
[8] = tested on: Rattus norvegicus
[9] = tested on: Tagia sp.
[10] = tested on: Colinus virginianus
[11] = tested on: Typhlodromus pyri; test: LR50; higher = less toxic; settings: acute; duration: 7 days; mortality

What does the source list for `CC(C)Oc1cc(-n2nc(C(C)(C)C)oc2=O)c(Cl)cc1Cl` [Oxadiazon]?
NOEC ([1]; reproductive): 106 mg/kg-day; LC50 ([1]; short-term, oral, feed, mortality): > 1140 mg/kg-day; LD50 [2]: > 100 µg/piece; NOEC [3]: 0.03 mg/L; NOEC [4]: 339 mg/kg; NOEC [5]: 5 mg/L; LC50 ([6]; acute, duration: 96 hours, mortality): 1.2 mg/L (≈ 3.48 µM); NOEC ([6]; chronic/long-term, duration: 60 days, other): 0.00088 mg/L; LC50 [7]: 1.2 mg/L (≈ 3.48 µM); LD50 ([8]; acute, oral, mortality): > 5000 mg/kg-day; NOAEL ([8]; chronic): 15 mg/kg-day; NOAEL ([8]; chronic, duration: 2 years, organ weight): 0.36 mg/kg-day; NOAEL ([8]; developmental, development): 12 mg/kg-day; NOAEL ([8]; reproduction developmental, reproduction): 5 mg/kg-day; LC50 ([9]; acute, duration: 14 days, mortality): > 1000 mg/kg; NOEC ([9]; chronic/long-term, duration: 8 weeks, reproduction): 133 mg/kg; LC50 ([10]; acute, oral, diet, mortality): > 730 mg/kg-day; LD50 ([10]; acute, oral, mortality): > 2150 mg/kg-day; NOEC ([10]; reproduction developmental): 90.8 mg/kg-day; LR50 [11]: 150 g/ha
